Measurements from ChEMBL document CHEMBL1201862, “PubChem BioAssay data set” (2004).
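How tested: cells in 96-well plates exposed to compound for 48 hours at five concentrations. GI50 = concentration required for 50% inhibition of growth.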 The source made the active and inactive calls. Rule as the data show it: active = GI50 up to about 1.1 µM and inactive = higher.

What was measured:
Assay in all cases: NCI-60 cell line screen, 48 h
786-0 = test system: 786-0
A549 = test system: A549
CAKI-1 = test system: CAKI-1
CCRF-CEM = test system: CCRF-CEM
EKVX = test system: EKVX
HOP-92 = test system: HOP-92
HT-29 = test system: HT-29
M14 = test system: M14
MOLT-4 = test system: MOLT-4
NCI-H23 = test system: NCI-H23
NCI-H460 = test system: NCI-H460
NCI-H522 = test system: NCI-H522
OVCAR-8 = test system: OVCAR-8
SF-268 = test system: SF-268
TK-10 = test system: TK-10
UACC-257 = test system: UACC-257
UO-31 = test system: UO-31
KM12 = test system: KM12

Measured: GI50

Cc1ccc(NC(=O)CC2C(=O)Nc3ccccc3S2(=O)=O)c(C)c1 (configuration not stated)
inactive: 786-0 18.3 µM | A549 18.7 µM | CAKI-1 8.79 µM | CCRF-CEM 16.4 µM | EKVX 42.5 µM | HOP-92 15 µM | HT-29 13.5 µM | M14 11.2 µM | MOLT-4 7.33 µM | NCI-H23 17.8 µM | NCI-H460 16 µM | NCI-H522 10.9 µM | OVCAR-8 18.2 µM | SF-268 20.3 µM | TK-10 25.9 µM | UACC-257 21.6 µM | UO-31 18.8 µM

NNC(=O)CCC(=O)Nc1cc(Cl)c(Cl)cc1Cl
inactive: 786-0 > 100 µM | A549 > 100 µM | CAKI-1 > 100 µM | CCRF-CEM > 100 µM | HOP-92 > 100 µM | HT-29 > 100 µM | KM12 > 100 µM | M14 > 100 µM | MOLT-4 90.6 µM | NCI-H23 > 100 µM | NCI-H460 > 100 µM | NCI-H522 > 100 µM | OVCAR-8 > 100 µM | SF-268 > 100 µM | TK-10 > 100 µM | UACC-257 > 100 µM | UO-31 > 100 µM

O=[N+]([O-])c1ccc(-c2ccc(C3=Nn4c(nnc4-c4ccc(Cl)cc4)SC3)o2)cc1
inactive: 786-0 31.4 µM | A549 47.1 µM | CAKI-1 > 100 µM | CCRF-CEM > 100 µM | EKVX > 100 µM | HOP-92 38.5 µM | HT-29 > 100 µM | KM12 > 100 µM | M14 > 100 µM | MOLT-4 > 100 µM | NCI-H23 > 53.2 µM | NCI-H460 > 73.3 µM | NCI-H522 > 89.3 µM | OVCAR-8 > 92 µM | SF-268 > 100 µM | TK-10 23.4 µM | UACC-257 > 100 µM | UO-31 > 100 µM

O=C(c1nc2ccccc2nc1O)C(O)c1ccccc1 (configuration not stated)
inactive: 786-0 > 100 µM | A549 70.3 µM | CAKI-1 > 100 µM | CCRF-CEM 32.7 µM | EKVX 64.6 µM | HOP-92 63.7 µM | HT-29 > 100 µM | KM12 54.6 µM | M14 > 100 µM | MOLT-4 64.9 µM | NCI-H23 > 100 µM | NCI-H460 > 100 µM | NCI-H522 22.2 µM | OVCAR-8 > 100 µM | SF-268 86.7 µM | TK-10 > 100 µM | UACC-257 > 100 µM | UO-31 94.8 µM

CCOC(=O)C1=C(O)C(=O)c2c(OC)ccc(OC)c2C1=O
inactive: 786-0 > 100 µM | A549 > 100 µM | CAKI-1 > 100 µM | CCRF-CEM > 100 µM | EKVX > 100 µM | HOP-92 > 100 µM | HT-29 > 100 µM | KM12 > 100 µM | M14 > 100 µM | MOLT-4 > 100 µM | NCI-H23 > 100 µM | NCI-H460 > 100 µM | NCI-H522 > 100 µM | OVCAR-8 > 100 µM | SF-268 > 100 µM | TK-10 > 100 µM | UACC-257 > 100 µM | UO-31 > 100 µM

CC1=C(NC(=O)/C(=N/NC(=S)NN)C2C(=O)CC(C)(C)CC2=O)C(=O)c2ccccc2C1=O
inactive: 786-0 10.9 µM | A549 9.4 µM | CAKI-1 20.7 µM | CCRF-CEM 3.56 µM | EKVX 15.7 µM | HT-29 11.1 µM | KM12 7.03 µM | M14 6.47 µM | MOLT-4 4.07 µM | NCI-H23 5.06 µM | NCI-H460 17.7 µM | NCI-H522 2.85 µM | OVCAR-8 4.55 µM | SF-268 8.18 µM | TK-10 16.1 µM | UACC-257 3.43 µM | UO-31 12.8 µM

O=C(c1ccccc1)c1ccc(OCCOc2ccc(Nc3ccccc3)cc2)cc1
inactive: 786-0 25 µM | A549 64.3 µM | CAKI-1 47.3 µM | CCRF-CEM > 100 µM | EKVX 74.8 µM | HOP-92 27.3 µM | KM12 > 100 µM | M14 49.5 µM | MOLT-4 > 100 µM | NCI-H23 46.8 µM | NCI-H460 65.5 µM | NCI-H522 17.8 µM | OVCAR-8 32.4 µM | SF-268 27.3 µM | TK-10 28.6 µM | UACC-257 65.8 µM | UO-31 > 100 µM

CC1C[C@H](OC(N)=O)C(C)CC1=O (some centres not stated)
inactive: 786-0 > 100 µM | A549 > 100 µM | CAKI-1 > 100 µM | CCRF-CEM > 100 µM | EKVX > 100 µM | HOP-92 30.2 µM | HT-29 > 100 µM | KM12 > 100 µM | M14 > 100 µM | MOLT-4 > 100 µM | NCI-H23 > 100 µM | NCI-H460 > 100 µM | OVCAR-8 > 100 µM | SF-268 > 100 µM | TK-10 > 100 µM | UACC-257 > 100 µM | UO-31 > 100 µM

NC(=O)CCC(NC(=O)Cc1ccccc1)C(=O)O (configuration not stated)
inactive: 786-0 > 2470 µM | A549 > 2470 µM | CAKI-1 1280 µM | CCRF-CEM 2320 µM | EKVX > 2470 µM | HOP-92 1060 µM | HT-29 > 2470 µM | KM12 > 2470 µM | M14 > 2470 µM | MOLT-4 > 2470 µM | NCI-H23 > 2470 µM | NCI-H522 841 µM | OVCAR-8 > 2470 µM | SF-268 1420 µM | TK-10 2120 µM | UO-31 667 µM

C/C(CC(=O)Nc1cccc(Cl)c1C)=N\NC(N)=S
inactive: 786-0 > 100 µM | A549 > 100 µM | CCRF-CEM > 100 µM | EKVX > 100 µM | HOP-92 30.1 µM | HT-29 > 100 µM | KM12 > 100 µM | M14 > 100 µM | MOLT-4 > 100 µM | NCI-H23 > 100 µM | NCI-H460 > 100 µM | NCI-H522 39.6 µM | OVCAR-8 > 100 µM | SF-268 > 100 µM | TK-10 > 100 µM | UACC-257 > 100 µM | UO-31 > 100 µM

CCOP12(OCC)NC(=O)OC1(C(F)(F)F)c1ccccc1O2 (configuration not stated)
inactive: 786-0 > 100 µM | A549 > 100 µM | CCRF-CEM > 100 µM | HT-29 > 100 µM | KM12 > 100 µM | M14 > 100 µM | MOLT-4 > 100 µM | NCI-H23 > 100 µM | NCI-H460 > 100 µM | NCI-H522 > 100 µM | OVCAR-8 > 100 µM | SF-268 > 100 µM | TK-10 > 100 µM | UACC-257 > 100 µM | UO-31 > 100 µM

C#CCSc1nc(N)c2ncn(C3OC(CO)C(O)C3O)c2n1 (configuration not stated)
inactive: 786-0 > 100 µM | A549 > 100 µM | CCRF-CEM > 100 µM | EKVX > 100 µM | HT-29 > 100 µM | KM12 > 100 µM | MOLT-4 > 100 µM | NCI-H23 > 100 µM | NCI-H460 > 100 µM | NCI-H522 > 100 µM | OVCAR-8 > 100 µM | SF-268 > 100 µM | TK-10 > 100 µM | UACC-257 > 100 µM | UO-31 > 100 µM

O=C(CSc1nnc(Cc2ccccc2)o1)Nc1ccccc1
inactive: 786-0 > 100 µM | A549 > 100 µM | CCRF-CEM > 100 µM | HT-29 > 100 µM | KM12 > 100 µM | M14 > 100 µM | MOLT-4 > 100 µM | NCI-H23 > 100 µM | NCI-H460 > 100 µM | NCI-H522 > 100 µM | OVCAR-8 > 100 µM | SF-268 > 100 µM | TK-10 > 100 µM | UACC-257 > 100 µM | UO-31 > 100 µM

CC1=NN(c2ccccc2)C(=O)/C1=C\c1ccc([N+](=O)[O-])cc1
inactive: 786-0 29.1 µM | A549 35.4 µM | CAKI-1 27.3 µM | CCRF-CEM 20.7 µM | EKVX 36.6 µM | HT-29 28.3 µM | KM12 26.4 µM | M14 30.8 µM | MOLT-4 21.5 µM | NCI-H23 27.9 µM | NCI-H460 34 µM | NCI-H522 21.8 µM | OVCAR-8 31.2 µM | SF-268 38.6 µM | TK-10 48.8 µM | UACC-257 28.7 µM | UO-31 32.3 µM

C=C1CCC2(C(C)=O)COC1(C)O2 (configuration not stated)
inactive: 786-0 > 100 µM | A549 > 100 µM | CCRF-CEM > 100 µM | EKVX > 100 µM | HT-29 > 100 µM | KM12 > 100 µM | M14 > 100 µM | MOLT-4 > 100 µM | NCI-H23 > 10 µM | NCI-H460 > 100 µM | NCI-H522 > 10 µM | OVCAR-8 > 100 µM | TK-10 > 100 µM | UACC-257 > 100 µM | UO-31 > 100 µM

Cc1ccc(/C=C/C(=O)c2sc(-c3nc(C)c(C(=O)/C=C/c4ccc(C)cc4)s3)nc2C)cc1
inactive: 786-0 > 100 µM | A549 > 100 µM | CAKI-1 > 100 µM | CCRF-CEM > 100 µM | EKVX > 100 µM | HOP-92 > 100 µM | HT-29 > 100 µM | KM12 > 100 µM | MOLT-4 > 100 µM | NCI-H23 > 100 µM | NCI-H460 > 100 µM | NCI-H522 97.5 µM | OVCAR-8 > 100 µM | SF-268 > 100 µM | TK-10 > 100 µM | UACC-257 > 100 µM | UO-31 > 100 µM

COC1C2c3ccccc3C(C#N)(Cc3ccc4c(c32)OCO4)N1C(=O)c1ccccc1 (configuration not stated)
inactive: 786-0 98.6 µM | CCRF-CEM 25.4 µM | EKVX 45.8 µM | HOP-92 > 100 µM | HT-29 48 µM | KM12 24.9 µM | M14 26.6 µM | MOLT-4 30.1 µM | NCI-H23 62.2 µM | NCI-H460 25.9 µM | NCI-H522 10.5 µM | OVCAR-8 84.9 µM | SF-268 > 100 µM | TK-10 > 100 µM | UACC-257 26.1 µM | UO-31 31.7 µM
